Data published in the NIST ThermoML archive (doi:10.1021/acs.jced.5b00385).

Conditions: Liquid, Vibrating tube method

FCC(F)(F)F [1,1,1,2-tetrafluoroethane]
Conditions | mass density [kg/m3]
283.46 K, 1000 kPa | 1262.57
283.46 K, 5000 kPa | 1279.58
283.47 K, 10000 kPa | 1298.12
283.47 K, 20000 kPa | 1329.18
283.47 K, 40000 kPa | 1377.11
283.47 K, 60000 kPa | 1414.44
283.47 K, 80000 kPa | 1445.46
303.37 K, 10000 kPa | 1236.85
303.37 K, 20000 kPa | 1275.77
303.38 K, 1000 kPa | 1188.07
303.38 K, 5000 kPa | 1212.13
303.38 K, 40000 kPa | 1332.36
303.38 K, 60000 kPa | 1374.64
303.38 K, 80000 kPa | 1408.98
323.15 K, 3000 kPa | 1119.19
323.16 K, 5000 kPa | 1136.38
323.16 K, 10000 kPa | 1170.84
323.16 K, 20000 kPa | 1220.65
323.16 K, 40000 kPa | 1287.71
323.16 K, 60000 kPa | 1335.49
323.16 K, 80000 kPa | 1373.39
342.97 K, 3000 kPa | 1014.76
342.97 K, 5000 kPa | 1045.25
342.98 K, 10000 kPa | 1097.42
342.98 K, 20000 kPa | 1162.91
342.98 K, 40000 kPa | 1242.75
342.98 K, 80000 kPa | 1338.34
342.99 K, 60000 kPa | 1296.65
362.68 K, 5000 kPa | 922.4
362.68 K, 10000 kPa | 1013.83
362.68 K, 20000 kPa | 1102.6
362.68 K, 40000 kPa | 1197.86
362.68 K, 60000 kPa | 1258.47
362.68 K, 80000 kPa | 1304.15
